According to patent US7019123B2, “Human bikunin” (Bayer Corporation, priority 1996, dated 2006):

What was measured:
Bovine chymotrypsin = Bovine chymotrypsin (Bos taurus, UniProt P00766); test: Inhibition of chymotrypsin, AAPF-pNA substrate; format: biochemical; settings: Chymotrypsin (5 nM), AAPF-pNA 0.08 mM
Factor XIIa = molecular target: T1, Factor XIIa (Homo sapiens, UniProt P00748); test: Inhibition of Factor XIIa, PFR-AMC substrate; format: biochemical
T1 sequence (P00748 373-615 limits assumed): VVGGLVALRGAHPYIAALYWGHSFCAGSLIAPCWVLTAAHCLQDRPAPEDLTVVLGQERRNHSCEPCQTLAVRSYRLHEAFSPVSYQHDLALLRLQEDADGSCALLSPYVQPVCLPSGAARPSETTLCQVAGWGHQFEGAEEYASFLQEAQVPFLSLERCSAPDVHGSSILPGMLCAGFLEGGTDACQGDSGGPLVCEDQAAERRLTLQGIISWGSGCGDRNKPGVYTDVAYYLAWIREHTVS

CC[C@H](C)[C@H](N)C(=O)N[C@@H](Cc1c[nH]cn1)C(=O)N[C@@H](CC(=O)O)C(=O)N[C@@H](Cc1ccccc1)C(=O)N[C@H]1CSSC[C@@H](C(=O)N[C@@H](C)C(=O)N[C@H](C(=O)N[C@H](C(=O)O)C(C)C)[C@@H](C)O)NC(=O)[C@H](CCCCN)NC(=O)[C@H](CCCCN)NC(=O)[C@H](CC(C)C)NC(=O)[C@@H]2CSSC[C@@H]3NC(=O)[C@H](CO)NC(=O)CNC(=O)[C@H](CC(=O)O)NC(=O)[C@H]([C@@H](C)O)NC(=O)[C@H](C(C)C)NC(=O)[C@H](CC(N)=O)NC(=O)[C@H](Cc4ccc(O)cc4)NC(=O)[C@H](Cc4c[nH]c5ccccc45)NC(=O)[C@H](Cc4c[nH]c5ccccc45)NC(=O)[C@H](CCCNC(=N)N)NC(=O)[C@@H]4CCCN4C(=O)[C@H](CCSC)NC(=O)[C@H](CO)NC(=O)[C@H](C)NC(=O)[C@H](CCCNC(=N)N)NC(=O)[C@H](CSSC[C@H](NC(=O)CNC(=O)CNC(=O)[C@H](Cc4ccc(O)cc4)NC(=O)[C@H](C(C)C)NC(=O)[C@H](Cc4ccccc4)NC(=O)[C@H](CC(C)C)NC(=O)[C@H](CCC(N)=O)NC3=O)C(=O)N[C@@H](CC(=O)O)C(=O)NCC(=O)N[C@@H](CC(N)=O)C(=O)N[C@@H](CO)C(=O)N[C@@H](CC(N)=O)C(=O)N[C@@H](CC(N)=O)C(=O)N[C@@H](Cc3ccc(O)cc3)C(=O)N[C@@H](CC(C)C)C(=O)N[C@@H]([C@@H](C)O)C(=O)N[C@@H](CCCCN)C(=O)N[C@@H](CCC(=O)O)C(=O)N[C@@H](CCC(=O)O)C(=O)N2)NC(=O)[C@H](CCCNC(=N)N)NC(=O)CNC(=O)[C@H](C(C)C)NC(=O)[C@H](C(C)C)NC(=O)[C@H](CCCCN)NC(=O)[C@H](CO)NC(=O)[C@H](C(C)C)NC(=O)[C@H](CC(C)C)NC1=O [bikunin (7–64)]
Ki (Bovine chymotrypsin): 0.6 nM | Ki (Factor XIIa): > 300 nM
